# Tests used:
# Format in all cases: in vivo
# Poa = test: Pre-emergence test/Greenhouse, Poa; details: after three weeks
# Procedure: (§1) To produce a suitable preparation of the active compound, 1 part by weight of active compound is mixed with the stated amount of solvent, the stated amount of emulsifier is added and the concentrate is diluted with water to the desired concentration.
# (§2) Seeds of the test plants are sown in normal soil. After about 24 hours, the soil is watered with the preparation of active compound. Advantageously, the amount of water per unit area is kept constant. The active compound concentration in the preparation is not important, only the active compound appliation rate per unit area matters.
# (§3) After three weeks, the degree of damage to the plants is rated in % damage in comparison to the development of the untreated control.
# (§4) 0%=no action (like untreated control)
# Matricaria = test: Pre-emergence test/Greenhouse, Matricaria; details: after three weeks
# Procedure: as §1, §2, §3, §4
# Lolium = test: Pre-emergence test/Greenhouse, Lolium; details: after three weeks
# Procedure: as §1, §2, §3, §4
# Solanum = test: Pre-emergence test/Greenhouse, Solanum; details: after three weeks
# Procedure: as §1, §2, §3, §4
# Ambrosia = test: Pre-emergence test/Greenhouse, Ambrosia; details: after three weeks
# Procedure: as §1, §2, §3, §4
# Soya beans = test: Pre-emergence test/Greenhouse, Soya beans
# Procedure: as §1, §2, §3, §4
# weeds = test: Pre-emergence test (greenhouse), activity against weeds; details: in words
# Procedure: Solvent: 5 parts by weight of acetone
# Emulsifier: 1 part by weight of alkylaryl polyglycol ether
# as §1, §2, §3, §4
# Maize = test: Pre-emergence test/Greenhouse, Maize
# Procedure: as §1, §2, §3, §4
# Sorghum = test: Pre-emergence test/Greenhouse, Sorghum; details: after three weeks
# Procedure: as §1, §2, §3, §4
# [1] = pre-emergence, 60 g of ai./ha, after three weeks
SMILES,activity against weeds (weeds),"degree of damage to the plants (% damage vs untreated control), Maize (Maize; in vivo) [%]","degree of damage to the plants (% damage vs untreated control), Poa (Poa; 125 g of ai./ha) [%]","degree of damage to the plants (% damage vs untreated control), Matricaria (Matricaria; 125 g of ai./ha) [%]","degree of damage to the plants (% damage vs untreated control), Lolium (Lolium; 125 g of ai./ha) [%]","degree of damage to the plants (% damage vs untreated control), Sorghum (Sorghum; 125 g of ai./ha) [%]","degree of damage to the plants (% damage vs untreated control), Solanum (Solanum; 125 g of ai./ha) [%]","degree of damage to the plants (% damage vs untreated control), Ambrosia (Ambrosia; 125 g of ai./ha) [%]",further results
"CCOn1c(SCC)nn(C(=O)NS(=O)(=O)c2c(C)cccc2C(=O)OC)c1=O [Example 3, 4-ethoxy-5-ethylthio-2-(2-methyl-6-methoxy-carbonyl-phenylsulphonylaminocarbonyl)-2,4-dihydro-3H-1,2,4-triazol-3-one]",very strong activity against weeds,–,–,–,–,–,–,–,"degree of damage to the plants (% damage vs untreated control), Poa (Poa; 60 g of ai./ha): 70%; degree of damage to the plants (% damage vs untreated control), Matricaria (Matricaria; 60 g of ai./ha): 95%; degree of damage to the plants (% damage vs untreated control), Lolium (Lolium; 60 g of ai./ha): 90%; degree of damage to the plants (% damage vs untreated control), Solanum (Solanum; 60 g of ai./ha): 80%; degree of damage to the plants (% damage vs untreated control), Ambrosia (Ambrosia; 60 g of ai./ha): 80%; degree of damage to the plants (% damage vs untreated control), Soya beans (Soya beans; [1]): 20%; degree of damage to the plants (% damage vs untreated control), Maize (Maize; [1]): 10%"
COC(=O)c1cccc(C)c1S(=O)(=O)NC(=O)n1nc(OCC(F)(F)F)n(C2CC2)c1=O [Example 142],very strong activity against weeds,20,–,–,–,–,–,–,"degree of damage to the plants (% damage vs untreated control), Poa (Poa; 15 g of ai./ha): 80%; degree of damage to the plants (% damage vs untreated control), Matricaria (Matricaria; 15 g of ai./ha): 80%; degree of damage to the plants (% damage vs untreated control), Lolium (Lolium; 15 g of ai./ha): 95%; degree of damage to the plants (% damage vs untreated control), Solanum (Solanum; 15 g of ai./ha): 80%; degree of damage to the plants (% damage vs untreated control), Ambrosia (Ambrosia; 15 g of ai./ha): 80%; degree of damage to the plants (% damage vs untreated control), Soya beans (Soya beans; in vivo): 10%"
CCCc1nn(C(=O)NS(=O)(=O)c2c(C)csc2C(=O)OC)c(=O)n1C [Example 35],very strong activity against weeds,0,–,–,–,–,–,–,"degree of damage to the plants (% damage vs untreated control), Poa (Poa; 60 g of ai./ha): 95%; degree of damage to the plants (% damage vs untreated control), Matricaria (Matricaria; 60 g of ai./ha): 100%; degree of damage to the plants (% damage vs untreated control), Lolium (Lolium; 60 g of ai./ha): 95%; degree of damage to the plants (% damage vs untreated control), Sorghum (Sorghum; 60 g of ai./ha): 95%; degree of damage to the plants (% damage vs untreated control), Solanum (Solanum; 60 g of ai./ha): 95%; degree of damage to the plants (% damage vs untreated control), Ambrosia (Ambrosia; 60 g of ai./ha): 95%"
COC(=O)c1cccc(C)c1S(=O)(=O)NC(=O)c1noc(C)n1 [Example 9],very strong activity against weeds,0,80,90,80,60,95,95,–
CCOC(=O)c1scc(C)c1S(=O)(=O)NC(=O)n1nc(C)n(C)c1=O [Example 65],very strong activity against weeds,20,80,95,80,80,95,–,–
CCOC(=O)c1scc(C)c1S(=O)(=O)NC(=O)n1nc(CC)n(OCC)c1=O [Example 61],very strong activity against weeds,0,95,95,95,80,95,100,–
COC(=O)c1scc(C)c1S(=O)(=O)NC(=O)c1noc(C)n1 [Example 13],very strong activity against weeds,30,80,95,90,70,90,95,–
C=CCn1c(SCCF)nn(C(=O)NS(=O)(=O)c2c(C)cccc2C(=O)OC)c1=O [Example 153],very strong activity against weeds,0,95,70,–,–,95,95,"degree of damage to the plants (% damage vs untreated control), Soya beans (Soya beans; in vivo): 30%"
CCOC(=O)c1scc(C)c1S(=O)(=O)NC(=O)n1nc(OC)n(C)c1=O [Example 57],very strong activity against weeds,0,–,–,–,–,–,–,"degree of damage to the plants (% damage vs untreated control), Poa (Poa; 60 g of ai./ha): 95%; degree of damage to the plants (% damage vs untreated control), Matricaria (Matricaria; 60 g of ai./ha): 95%; degree of damage to the plants (% damage vs untreated control), Lolium (Lolium; 60 g of ai./ha): 95%; degree of damage to the plants (% damage vs untreated control), Sorghum (Sorghum; 60 g of ai./ha): 95%; degree of damage to the plants (% damage vs untreated control), Solanum (Solanum; 60 g of ai./ha): 95%"
CCCOc1nn(C(=O)NS(=O)(=O)c2c(C)csc2C(=O)OC)c(=O)n1C [Example 33],very strong activity against weeds,10,90,95,–,80,95,90,–
CCOC(=O)c1scc(C)c1S(=O)(=O)NC(=O)n1nc(SC)n(C)c1=O [Example 55],very strong activity against weeds,10,90,100,100,60,100,100,–
CCOC(=O)c1scc(C)c1S(=O)(=O)NC(=O)n1nc(SCC)n(C)c1=O [Example 56],very strong activity against weeds,–,80,100,60,–,95,–,"degree of damage to the plants (% damage vs untreated control), Soya beans (Soya beans; in vivo): 0%"
CCOc1nn(C(=O)NS(=O)(=O)c2c(C)cccc2C(=O)OC(C)C)c(=O)n1C1CC1 [Example 46],very strong activity against weeds,0,–,–,–,–,–,–,"degree of damage to the plants (% damage vs untreated control), Poa (Poa; 8 g of ai./ha): 95%; degree of damage to the plants (% damage vs untreated control), Matricaria (Matricaria; 8 g of ai./ha): 95%; degree of damage to the plants (% damage vs untreated control), Lolium (Lolium; 8 g of ai./ha): 80%; degree of damage to the plants (% damage vs untreated control), Sorghum (Sorghum; 8 g of ai./ha): 80%; degree of damage to the plants (% damage vs untreated control), Solanum (Solanum; 8 g of ai./ha): 95%; degree of damage to the plants (% damage vs untreated control), Ambrosia (Ambrosia; 8 g of ai./ha): 95%"
CCOc1nn(C(=O)NS(=O)(=O)c2c(C)csc2C(=O)OC)c(=O)n1CC [Example 41],very strong activity against weeds,0,–,–,–,–,–,–,"degree of damage to the plants (% damage vs untreated control), Poa (Poa; 60 g of ai./ha): 80%; degree of damage to the plants (% damage vs untreated control), Matricaria (Matricaria; 60 g of ai./ha): 95%; degree of damage to the plants (% damage vs untreated control), Lolium (Lolium; 60 g of ai./ha): 60%; degree of damage to the plants (% damage vs untreated control), Sorghum (Sorghum; 60 g of ai./ha): 60%; degree of damage to the plants (% damage vs untreated control), Solanum (Solanum; 60 g of ai./ha): 90%; degree of damage to the plants (% damage vs untreated control), Ambrosia (Ambrosia; 60 g of ai./ha): 95%"
